Test results reported in ChEMBL document CHEMBL3046034, “Enzyme inhibitors to increase poly-3-hydroxybutyrate production by transgenic tobacco” (2002).
The source made the active and inactive calls. No cut-off for these calls is given here.

Tests used:
[1] = test system: Nicotiana tabacum; experiment: Increase of poly-3-hydroxybutyrate production in rCAB8 transgenic Nicotiana tabacum (tobacco) plastids at 0.1 to 10 uM sprayed on five-leaf stage plant once in a week measured after 2 weeks relative to control; assay type: functional, organism-based
[2] = test system: Nicotiana tabacum; experiment: Increase of poly-3-hydroxybutyrate production in BC3 transgenic Nicotiana tabacum (tobacco) plastids at 10 uM sprayed on five-leaf stage plant once in a week measured after 2 weeks relative to control; assay type: functional, organism-based
[3] = test system: Nicotiana tabacum; experiment: Increase of poly-3-hydroxybutyrate production in BC3 transgenic Nicotiana tabacum (tobacco) plastids at 1 uM sprayed on five-leaf stage plant once in a week measured after 2 weeks relative to control; assay type: functional
[4] = test system: Nicotiana tabacum; experiment: Increase of leaf dry weight in rCAB8 transgenic Nicotiana tabacum (tobacco) at 10 to 250 uM sprayed on five leaf stage plant once in a week measured after 2 weeks; assay type: functional, organism-based
[5] = test system: Nicotiana tabacum; experiment: Increase of poly-3-hydroxybutyrate production in BC3 transgenic Nicotiana tabacum (tobacco) at 10 uM sprayed on five leaf stage plant once in a week measured after 2 weeks relative to control; assay type: functional
[6] = test system: Nicotiana tabacum; experiment: Increase of PHA synthase level in rCAB8 transgenic Nicotiana tabacum (tobacco) at 50 uM sprayed on five leaf stage plant once in a week measured after 2 weeks by immunoblot analysis; assay type: functional, organism-based
[7] = test system: Nicotiana tabacum; experiment: Increase of poly-3-hydroxybutyrate production in rCAB8 transgenic Nicotiana tabacum (tobacco) plastids at 50 uM sprayed on five-leaf stage plant once in a week measured after 2 weeks relative to cytosol; assay type: functional
[8] = test system: Nicotiana tabacum; experiment: Increase of poly-3-hydroxybutyrate production in rCAB8 transgenic Nicotiana tabacum (tobacco) at 50 uM sprayed on five-leaf stage plant once in a week measured after 2 weeks relative to control; assay type: functional
[9] = test system: Nicotiana tabacum; experiment: Increase of leaf dry weight in BC3 transgenic Nicotiana tabacum (tobacco) sprayed on five-leaf stage plant once in a week measured after 2 weeks; assay type: functional, organism-based
[10] = test system: Nicotiana tabacum; experiment: Increase of PHA synthase level in BC3 transgenic Nicotiana tabacum (tobacco) at 10 uM sprayed on five leaf stage plant once in a week measured after 2 weeks by immunoblot analysis; assay type: functional, organism-based
[11] = test system: Nicotiana tabacum; experiment: Increase of poly-3-hydroxybutyrate production in BC3 transgenic Nicotiana tabacum (tobacco) at 10 uM sprayed on five-leaf stage plant once in a week measured after 1 week relative to control; assay type: functional
[12] = test system: Nicotiana tabacum; experiment: Increase of poly-3-hydroxybutyrate production in BC3 transgenic Nicotiana tabacum (tobacco) at 2 to 50 uM sprayed on five-leaf stage plant once in a week measured after 2 weeks relative to control; assay type: functional
[13] = test system: Nicotiana tabacum; experiment: Increase of poly-3-hydroxybutyrate production in BC3 transgenic Nicotiana tabacum (tobacco) plastids at 10 uM sprayed on five-leaf stage plant once in a week measured after 2 weeks relative to cytosol; assay type: functional
[14] = test system: Nicotiana tabacum; experiment: Increase of leaf dry weight in BC3 transgenic Nicotiana tabacum (tobacco) at 10 uM sprayed on five leaf stage plant once in a week measured after 1 week; assay type: functional, organism-based
[15] = test system: Nicotiana tabacum; experiment: Increase of poly-3-hydroxybutyrate production in rCAB8 transgenic Nicotiana tabacum (tobacco) at 50 uM sprayed on five-leaf stage plant once in a week measured after 1 week relative to control; assay type: functional

Row | SMILES | Activity [1] | Activity [2] | Activity [3] [%] | Activity [4] | Activity [5] [%] | Activity [6] | fold change (FC) [7] | Activity [8] [%] | Activity [9] | Activity [10] | Activity [11] [%] | Activity [12] [%] | fold change (FC) [13] | Activity [14] | Activity [15] [%]
1 | CC[C@H](C)C(=O)O[C@H]1CCC=C2C=C[C@H](C)[C@H](CC[C@@H]3C[C@@H](O)CC(=O)O3)[C@H]21 [MEVASTATIN] | Active | inactive | 192 | – | – | – | – | – | – | – | – | – | – | – | –
2 | CC(Oc1ccc(Oc2cnc3cc(Cl)ccc3n2)cc1)C(=O)O (stereo not given) [QUIZALOFOP] | – | – | – | Active | 170 | Active | 2.5 | 150 | Dose-dependent effect | Active | 150 | 170 | 2.5 | Active | 120
